From patent US12162858B2, “Quinoline derivatives as inhibitors of AXL/MER RTK and CSF1R” (QURIENT CO., LTD., priority 2018, dated 2024)
Where two headings read alike, the source gives them in different places.

Assays:
CSF1R [1] = biological target: T1, CSF1R (Homo sapiens, UniProt P07333); experiment: KINOMEscan competition binding assay for CSF1R; parameters: DNA tag for qPCR (not a peptide); host or cells: E. coli/T7 phage or HEK-293; details: @ 0.1 uM
Description: KINOMEscan™ is based on a competition binding assay that quantitatively measures the ability of a compound to compete with an immobilized, active-site directed ligand. The assay is performed by combining three components: DNA-tagged kinase; immobilized ligand; and a test compound. The ability of the test compound to compete with the immobilized ligand is measured via quantitative PCR of the DNA tag.
E. coli were grown to log-phase and infected with T7 phage and incubated with shaking at 32° C. until lysis. The lysates were centrifuged and filtered to remove cell debris. The remaining kinases were produced in HEK-293 cells and subsequently tagged with DNA for qPCR detection. Streptavidin-coated magnetic beads were treated with biotinylated small molecule ligands for 30 minutes at room temperature to generate affinity resins for kinase assays. The liganded beads were blocked with excess biotin and washed with blocking buffer (SeaBlock (Pierce), 1% BSA, 0.05% Tween 20, 1 mM DTT) to remove unbound ligand and to reduce non-specific binding. Binding reactions were assembled by combining kinases, liganded affinity beads, and test compounds in 1× binding buffer (20% SeaBlock, 0.17×PBS, 0.05% Tween 20, 6 mM DTT). Test compounds were prepared as 111× stocks in 100% DMSO. Kds were determined using an 11-point 3-fold compound dilution series with three DMSO control points. All compounds for Kd measurements are distributed by acoustic transfer (non-contact dispensing) in 100% DMSO. The compounds were then diluted directly into the assays such that the final concentration of DMSO was 0.9%. In case of % inhibition, test compounds were prepared as 40× stocks in 100% DMSO and directly diluted into the assay. All reactions performed in polypropylene 384-well plate. Each was a final volume of 0.02 ml. The assay plates were incubated at room temperature with shaking for 1 hour and the affinity beads were washed with wash buffer (1×PBS, 0.05% Tween 20). The beads were then re-suspended in elution buffer (1×PBS, 0.05% Tween 20, 0.5 μM non-biotinylated affinity ligand) and incubated at room temperature with shaking for 30 minutes. The kinase concentration in the eluates was measured by qPCR.
The CSF1R kinase binding activity results are shown in tables 1 (Kd) and 2 (percent inhibition at a concentration of 0.1 uM of compound to be tested).
Binding constants (Kds) were calculated with a standard dose-response curve using the Hill equation: […]
The Hill Slope was set to −1.
Curves were fitted using a non-linear least square fit with the Levenberg-Marquardt algorithm.
Binding % inhibition were calculated with as below:
[formula] • negative control=DMSO (100% Ctrl) • positive control=control compound (0% Ctrl)

CSF1R [2] = biological target: T1, CSF1R; experiment: Cellular CSF1R inhibition ELISA (p-CSF1R, M-CSF-induced) using THP-1 cells; assay type: cell-based; parameters: THP-1 cells act as a model for human monocytes; endogenous in cells; host or cells: THP-1
Excerpt: The normal proto-oncogene c-fms encodes the macrophage growth factor (M-CSF, also known as CSF1) receptor involved in growth, survival, and differentiation along the monocyte-macrophage lineage. THP-1 cells act as a model for human monocytes. It confirms that an increased phosphorylation of CSF1R (p-CSF1R) can be observed, when induced by CSF1R ligand, CSF1.
The THP-1 cells should be maintained from 5×10^5 to 1×10^6 cells/ml in the cell culture flask. After centrifugation, the supernatant is aspirated. The cell pellet is re-suspended with pre-warmed growth medium (RPMI1640, 10% FBS, 0.05 mM 2-Mercaptoethanol) and cells are separated by pipetting 6 times up and down with a 10 ml serological pipette. The cell suspension has to be diluted to a final concentration of 2×10^5 cells per 80 μl with pre-warmed growth medium. 80 μl of cell suspension is added to all wells of plates. Cell-plates are incubated at 37° C./5% CO2. Dissolve compound in 100% DMSO to make 10 mM stock solutions (Aliquots stored in the Nitrogen Cabinet). Dilute 10 mM compounds solutions for 2-fold in 100% DMSO to get 5 mM solutions (10 μl+10 μl DMSO), and then make a 3-fold serial dilution (10 μl+20 μl DMSO) for 10 doses. For reference compounds: Dilute 10 mM compounds solutions for 20-fold in 100% DMSO to get 0.5 mM solutions (2 μl+38 μl DMSO), and then make a 3-fold serial dilution (10 μl+20 μl DMSO) for 10 doses. Transfer 2 μl diluted compounds to 198 μl medium to get solution of 50 μM concentration at top point for compounds and 5 μM for reference compounds. Then transfer 20 μl cpd solution into assay plate (Duplicate wells). The plate is incubated at 37° C./5% CO2 for 24 h. The final concentration of DMSO in all wells is […]. Reconstitute human M-CSF at 50 μg/ml in sterile water. (Aliquots stored in −80° C.). 1:1000 dilute human M-CSF by fresh medium to 50 ng/ml. After 24 h compounds treatment, transfer 25 μl diluted human M-CSF (50 ng/ml) to cell plate according to the plate map. The final concentration of human M-CSF in all wells is 10 ng/ml.
The plates is incubated at 37° C./5% CO2 for 5 min. In the beginning the appropriate amount of lysis buffer complete (100 μL/well) is prepared and stored on ice. After 5 min human M-CSF stimulation, wash plates once with 300 μL ice cold PBS. Then 100 μl lysis buffer is added to each well. The plate is shacked for 40 min at 4° C. Plates can now be stored at −20° C. After equilibrate the micro-well strips at room temperature, break off the required number of micro-wells. Place the micro-wells in the strip holder. Unused micro-wells must be resealed and stored at 4° C. immediately. Add 90 μl of cell lysate to the appropriate well. Seal with tape and press firmly onto top of micro-wells. Incubate the plate for 2 h at 37° C. Gently remove the tape and wash wells 4 times with 1× Wash Buffer, 200 μl each time for each well. Add 100 μl of reconstituted Detection Antibody (green color) to each well. Seal with tape and incubate the plate at 37° C. for 1 h. Repeat wash procedure. Add 100 μl of reconstituted HRP-Linked secondary antibody to each well. Seal with tape and incubate the plate for 30 min at 37° C. Repeat wash procedure. Add 100 μl of TMB Substrate to each well. Seal with tape and incubate the plate for 10 min at 37° C. or 30 min at 25° C. Calculations and Formulas: The following calculations and formulas are used for data analysis using XL Fit software: The curve fitting was made using the Sigmoidal Dose-Response Model (Fit model, 205).

[3] = read-out: CSF1R kinase binding activity, Percent (%) inhibition
[4] = read-out: CSF1R kinase binding activity, Range

T1 sequence (P07333 20-972): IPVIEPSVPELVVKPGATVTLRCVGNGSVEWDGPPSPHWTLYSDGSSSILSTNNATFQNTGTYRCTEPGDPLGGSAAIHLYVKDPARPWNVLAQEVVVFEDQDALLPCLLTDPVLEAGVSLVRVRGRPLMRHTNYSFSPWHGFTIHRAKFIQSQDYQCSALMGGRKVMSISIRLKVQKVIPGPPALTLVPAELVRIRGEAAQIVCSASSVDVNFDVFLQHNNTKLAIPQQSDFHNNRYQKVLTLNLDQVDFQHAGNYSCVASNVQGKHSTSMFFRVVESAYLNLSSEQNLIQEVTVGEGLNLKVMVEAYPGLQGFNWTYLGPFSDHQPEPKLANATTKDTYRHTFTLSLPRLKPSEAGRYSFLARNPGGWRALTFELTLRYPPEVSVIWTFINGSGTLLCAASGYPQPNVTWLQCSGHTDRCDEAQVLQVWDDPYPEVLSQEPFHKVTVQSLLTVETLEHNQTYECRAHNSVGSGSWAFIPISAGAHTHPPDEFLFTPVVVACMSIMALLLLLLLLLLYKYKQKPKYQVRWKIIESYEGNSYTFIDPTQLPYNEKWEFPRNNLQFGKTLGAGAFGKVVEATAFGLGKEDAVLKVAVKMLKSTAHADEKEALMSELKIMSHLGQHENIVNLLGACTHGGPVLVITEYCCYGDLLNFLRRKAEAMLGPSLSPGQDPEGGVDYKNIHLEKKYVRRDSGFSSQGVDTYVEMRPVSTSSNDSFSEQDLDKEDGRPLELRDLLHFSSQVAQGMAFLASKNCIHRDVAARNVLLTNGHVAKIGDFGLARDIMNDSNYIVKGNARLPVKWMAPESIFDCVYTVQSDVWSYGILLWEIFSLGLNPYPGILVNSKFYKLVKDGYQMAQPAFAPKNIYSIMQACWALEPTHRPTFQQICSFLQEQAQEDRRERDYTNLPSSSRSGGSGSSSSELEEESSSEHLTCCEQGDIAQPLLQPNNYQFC

SMILES	inhibition at 0.1 µM (CSF1R [1]; [3]) [%]	inhibition at 0.1 µM (CSF1R [1]; [4]) [%]	IC50 (CSF1R [2]) [µM]
COc1cc2nccc(Oc3ccc(NC(=O)c4nn(C5CCNC5)cc4OCC(F)(F)F)cn3)c2cc1OC (stereo not drawn) [Compound 132]	16	< 50	≥ 1
COc1cc2nccc(Oc3ccc(NC(=O)c4nn(C5CCN(C)C5)cc4OCC(F)(F)F)cn3)c2cc1OC (stereo not drawn) [Compound 133]	9	< 50	≥ 1
COc1cc2nccc(Oc3ccc(NC(=O)c4nn(CC5COC5)cc4OCC(F)(F)F)cn3)c2cc1OC [Compound 134]	18	< 50	≥ 1
COc1cc2nccc(Oc3ccc(NC(=O)c4nn(CCN)cc4OCC(F)(F)F)cn3)c2cc1OC [Compound 135]	4	< 50	≥ 1
COc1cc2nccc(Oc3ccc(NC(=O)c4nn(CC(C)O)cc4OCC(F)(F)F)cn3)c2cc1OC (stereo not drawn) [Compound 136]	23	< 50	≥ 1
CNCCn1cc(OCC(F)(F)F)c(C(=O)Nc2ccc(Oc3ccnc4cc(OC)c(OC)cc34)nc2)n1 [Compound 137]	6	< 50	≥ 1
COc1cc2nccc(Oc3ccc(NC(=O)c4nn(C5CCOC5)cc4OCC(F)(F)F)cn3)c2cc1OC (stereo not drawn) [Compound 138]	9	< 50	≥ 1
CCCn1cc(OCC(F)(F)F)c(C(=O)Nc2ccc(Oc3ccnc4cc(OC)c(OC)cc34)nc2)n1 [Compound 139]	37	< 50	≥ 1
CCCn1cc(OCCNC)c(C(=O)Nc2ccc(Oc3ccnc4cc(OC)c(OC)cc34)cn2)n1 [Compound 140]	38	< 50	≥ 1
CNCCOc1cn(C2CC2)nc1C(=O)Nc1ccc(Oc2ccnc3cc(OC)c(OC)cc23)cn1 [Compound 141]	23	< 50	≥ 1
COc1cc2nccc(Oc3ccc(NC(=O)c4nn(C5CC5)cc4NCCC(F)(F)F)nc3)c2cc1OC [Compound 142]	92	≥ 80	< 0.5
COc1cc2nccc(Oc3ccc(NC(=O)c4nn(C5CC5)cc4OCC4COC4)nc3)c2cc1OC [Compound 143]	95	≥ 80	< 0.5
COc1cc2nccc(Oc3ccc(NC(=O)c4nn(C5CC5)cc4OCC4CNC4)nc3)c2cc1OC [Compound 144]	73	50 to 80	≥ 1
COc1cc2nccc(Oc3ccc(NC(=O)c4nn(C5CC5)cc4NCC(F)(F)F)nc3)c2cc1OC [Compound 145]	94	≥ 80	< 0.5
COc1cc2nccc(Oc3ccc(NC(=O)c4nn(C5CC5)cc4NCCC(F)(F)F)nn3)c2cc1OC [Compound 146]	43	< 50	≥ 1
COc1cc2nccc(Oc3ccc(NC(=O)c4nn(C5CC5)cc4OC(C)C)nn3)c2cc1OC [Compound 147]	85	≥ 80	0.5 to 1
COc1cc2nccc(Oc3ccc(NC(=O)c4nn(C5CC5)cc4NCC(F)(F)F)nn3)c2cc1OC [Compound 148]	60	50 to 80	≥ 1
COc1cc2nccc(Oc3ccc(NC(=O)c4nn(C5CC5)cc4OCC4CCC4)nn3)c2cc1OC [Compound 149]	76	50 to 80	≥ 1
COCCOc1cn(CC(C)O)nc1C(=O)Nc1ccc(Oc2ccnc3cc(OC)c(OC)cc23)cn1 (stereo not drawn) [Compound 150]	74	50 to 80	≥ 1
COc1cc2nccc(Oc3ccc(NC(=O)c4nn(CC(C)O)cc4OC(C)C)nc3)c2cc1OC (stereo not drawn) [Compound 151]	97	≥ 80	< 0.5
COc1cc2nccc(Oc3ccc(NC(=O)c4nn(CC(C)O)cc4OCCF)nc3)c2cc1OC (stereo not drawn) [Compound 152]	96	≥ 80	< 0.5
COc1cc2nccc(Oc3ccc(NC(=O)c4nn(CCOC5CC5)cc4OCC(F)(F)F)nc3)c2cc1OC [Compound 153]	95	≥ 80	< 0.5
CNCCn1cc(OCC(F)(F)F)c(C(=O)Nc2ccc(Oc3ccnc4cc(OC)c(OC)cc34)cc2F)n1 [Compound 154]	47	< 50	≥ 1
CNCCn1cc(OCC(F)(F)F)c(C(=O)Nc2ccc(Oc3ccnc4cc(OC)c(OC)cc34)c(F)c2)n1 [Compound 155]	22	< 50	≥ 1
CNCCn1cc(OCC(F)(F)F)c(C(=O)Nc2ccc(Oc3ccnc4cc(OC)c(OC)cc34)c(C)c2)n1 [Compound 156]	49	< 50	≥ 1
COc1cc2nccc(Oc3ccc(NC(=O)c4nn(C5CCN(C)C5)cc4OCC(F)(F)F)nn3)c2cc1OC (stereo not drawn) [Compound 157]	81	≥ 80	0.5 to 1
CCCn1cc(NCCC(F)(F)F)c(C(=O)Nc2ccc(Oc3ccnc4cc(OC)c(OC)cc34)cn2)n1 [Compound 158]	91	≥ 80	< 0.5
